In patent US10889553B2, “Asymmetric triazole benzamide derivatives and the compositions and methods of treatment regarding the same” (NysnoBio Ireland DAC, priority 2017, dated 2021) one finds half-life and IC50 data, which are given here for seven compounds.

Data set [1] can be described thus: Microsomal stability assay, human liver microsomes. It is filed as in vitro ADME. The following applies: pH 7.4; human liver microsomes 1.0 mg/mL, 1 μM compound, NADPH; read-out: HLM t1/2. The protocol:
(§1) Compounds were also tested for metabolic stability in both rat liver microsomes (RLM) and the compounds are tested for human liver microsomes (HLM) and their half-life is calculated (See Tables 5A and 5B). The assay was performed as follows. The total volume for each incubation was 250 μL. A 100 μM DMSO solution of compound (diluted from 10 mM stock solution) was spiked into 50 mM KH2PO4 (pH 7.4) buffer containing liver microsome at a concentration of 1.0 mg/mL. The reaction was initiated by the addition of 50 μL of 1 mM NADPH. The final concentration of each compound was 1 μM (1% DMSO). The positive controls, phenacetin for CYP1A2, diclofenac for CYP2C9, omeprazole for CYP2C19, dextromethorphan for CYP2D6 and midazolam for CYP3A4 were added to a separate tube with the final substrate concentrations of 1 μM (1% DMSO) for evaluating the enzyme activities in the liver microsomes. At 0, 15, 30 and 60 min, an aliquot of 15 μL reaction mixtures were removed and 200 μL of methanol (with internal standard of 25 ng/mL propranolol) was added to quench the reaction. The resulting mixture was centrifuged and supernatant was used for LC-MS/MS analysis.
(§2) The signals for each compound, or the metabolites for the probe substrates and the internal standard were integrated and the peak area ratios to internal standard were generated. Percent parent remaining at a specified timepoint was calculated based on the peak area ratios at time 0 (as 100%) for in vitro metabolic stability studies in liver microsome and hepatocyte. The observed rate constant (kobs) for the metabolism of substrates was calculated by plotting the natural log of percentage substrate remaining versus time of incubation with the slope being kobs. The half-life (T1/2) was calculated according to the following equation: T1/2=[…]
Background: Microsomes from liver hold many membrane-bound enzymes, among them those of drug oxidation.

Data set [2] is described as follows: Microsomal stability assay, rat liver microsomes. The following applies: pH 7.4; rat liver microsomes 1.0 mg/mL, 1 μM compound, NADPH; read-out: RLM t1/2. It is filed as in vitro ADME. The protocol: as §1, §2
For data set [3], the system named is HCT-116 (colon). In words: Cancer cell proliferation assay (acid phosphatase). Format: cell-based. The note with it: Homo sapiens. The protocol:
(§3) Measurement of the inhibitive effect of compounds on cancer cell proliferation was performed. Various cell lines were tested, including HCT-116 (colon); A549 (lung); TOV-21G (ovarian); Calu-6 (lung); and LS-174T (colon); and cell lines H1703 (Lung) and SKOV3 (ovarian); JEKO-1 (lymophoma); TOV-112D (ovarian) are tested. The assays were performed under the following conditions: Cells are harvested at a concentration of 4×10^4 cells/ml in media. Volumes of 100 μl/well of these cell suspensions were added to a 96 well plate using a multichannel pipette. Plates were gently agitated to ensure an even dispersion of cells over a given plate. Cells were then incubated at 37° C., 5% CO2 overnight. Following this, 100 μl of compound at varying concentrations was added to wells in triplicate. Control wells are those with 100 μl media containing 0.33% DMSO added to cell suspension (this is the equivalent volume of DMSO found in the highest concentration of drug). Plates were then gently agitated, as above, and incubated at 37° C., 5% CO2 for 72 hrs (control wells have reached 80-90% confluency). Assessment of cell proliferation in the presence of the compound was determined by the acid phosphatase assay.
(§4) Following the incubation period of 72 hrs, media was removed from the plates. Each well on the plate was washed twice with 100 μl PBS. This was then removed and 100 μl of freshly prepared phosphatase substrate (10 mM p-nitrophenol phosphate in 0.1M sodium acetate, 0.1% triton X-100, pH 5.5) was added to each well. The plates were then incubated in the dark at 37° C. for 2 hours. Colour development was monitored during this time. The enzymatic reaction was stopped by the addition of 50 μl of 1N NaOH. The plate was read in a dual beam plate reader at 405 nm with a reference wavelength of 620 nm. The absorbance reading of the latter is subtracted from the former, and the effect of the drug on cell proliferation was then measured as a percentage against the control cells (DMSO), which is taken as 0% inhibition.

Data set [4] relates to JEKO-1 (lymophoma). The data set can be described thus: Cancer cell proliferation assay (acid phosphatase). It is filed as cell-based. The following applies: Homo sapiens. As to the method: as §3, §4
Data set [5] relates to TOV-112D (ovarian). The data set can be described thus: Cancer cell proliferation assay (acid phosphatase). It is filed as cell-based. The following applies: Homo sapiens, TOV112D. The protocol:
as §3, §4

Data set [6] has as its system Ovarian (A2780). The data set can be described thus: Cancer cell proliferation assay (acid phosphatase). The following applies: Homo sapiens, Table 6E. It is filed as cell-based. As to the method:
as §3, §4

Data set [7] deals with Mantle Cell Mino. In words: Cancer cell proliferation assay (acid phosphatase). The following applies: Homo sapiens, Table 6E. Format: cell-based. The protocol: as §3, §4
Data set [8] concerns TOV-21G (ovarian). The data set can be described thus: Cancer cell proliferation assay (acid phosphatase). The following applies: Homo sapiens, TOV21G; Table 6E; read-out: Proliferation IC50 (nM) Ovarian TOV21G. It is filed as cell-based. As to the method:
as §3, §4

For data set [9], the system named is Ovarian (OAW42). The data set can be described thus: Cancer cell proliferation assay (acid phosphatase). It is filed as cell-based. The note with it: Homo sapiens, OAW-42; Table 6E. The protocol: as §3, §4
[10] abbreviates: HCT-116, 72 h, Table 6A, 72 hrs, read-out: HCT-116 IC50.
The mark [11] stands for this setting: Table 6B, 72 hrs, read-out: JEKO-1 IC50.
Where [12] appears, read: Table 6B, 72 hrs, read-out: TOV-112D IC50.

Where two headings read alike, the source gives them in different places. Where only a bound is given, the exact number is not on record here.

Take `Cc1ccccc1C(=O)Nc1nc(-c2ccccc2O)nn1-c1cccc(F)c1` [Compound 157]: the half-life at 1 μM in data set [1] came to 0.7 h; in data set [2], 0.275 h. For the same compound, the IC50 in data set [3] (setting [10]) is 350 nM; in data set [4] (setting [11]), 80 nM; in data set [5] (setting [12]) it was 120 nM.
For `Cc1ccccc1C(=O)Nc1nc(NC(=O)c2ccccc2C)n(-c2ccccc2)n1` [Compound F, 2-methyl-N-[5-[(2-methylbenzoyl)amino]-1-phenyl-1,2,4-triazol-3-yl]benzamide], the IC50 in data set [3] (HCT-116, Table 6E, read-out: Proliferation IC50 (nM) CRC HCT-116) was 1300 nM; in data set [4] (Table 6E, read-out: Proliferation IC50 (nM) Mantle Cell Jeko-1), > 2500 nM; in data set [6], 1300 nM; in data set [5] (Table 6E, read-out: Proliferation IC50 (nM) Ovarian TOV112D), 850 nM; in [7], 884 nM; in data set [8], 1500 nM. Also, the IC50 in data set [9] is > 2500 nM.
For the compound `Cc1ccccc1C(=O)Nc1nc(-c2ccccc2O)nn1-c1ccc(C(F)(F)F)cc1` [Compound 156], the half-life at 1 μM came to 2.63 h in data set [1] and 0.395 h in [2]. Further, the IC50 in data set [3] (setting [10]) stood at 240 nM; in data set [4] (setting [11]) it was 80 nM; in data set [5] (setting [12]), 40 nM.
For `Cc1ccccc1C(=O)Nc1nc(-c2cc(Cl)ccc2O)nn1-c1ccc(OC(F)(F)F)cc1` [Compound 158] the same measures were 2.75 h, 2.82 h, 240 nM, 200 nM and 190 nM.
Turning to `COc1ccccc1-c1nc(NC(=O)c2ccccc2C)n(-c2ccc(OC(F)(F)F)cc2)n1` [Compound 154], the half-life at 1 μM in [1] was determined as 2.22 h; in data set [2], 1.7 h. For the same compound, in [3] (setting [10]), the IC50 is > 2500 nM.
`Cc1ccc(O)c(-c2nc(NC(=O)c3ccccc3C)n(-c3ccc(OC(F)(F)F)cc3)n2)c1` [Compound 159]: the half-life at 1 μM in data set [1] came out at 2.97 h; in data set [2] it was 2.63 h. Besides, the IC50 is 300 nM in [3] (setting [10]), 90 nM in data set [4] (setting [11]) and 60 nM in [5] (setting [12]).
In the case of `Cc1ccccc1C(=O)Nc1nc(-c2ccccc2O)nn1-c1ccc(Cl)cc1` [Compound 155], the half-life at 1 μM in data set [1] was 1.06 h; in data set [2], 0.29 h. The figures for the IC50 in data set [3] (setting [10]), in [4] (setting [11]) and in data set [5] (setting [12]) were 240 nM, 40 nM and 40 nM, respectively.
